pIC50: −log10 of the molar value.

Assay [1] addresses T1, active p38 alpha enzyme (Upstate Biotechnology) (Homo sapiens, UniProt Q16539).
T1 construct: purchased Upstate Biotechnology
Description: p38α biochemical assay (ATP turnover, luminescent detection, Cambrex PKlight). Conditions: Table 1 Biological Activity. A digest of the protocol:
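In this kinase reaction, p38α used MapkapK2 as phosphorylation substrate at low ATP (1.4 uM final) over 2 hours at 30C, and activity was followed as ATP turnover by luminescence.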

A further assay relates to TNF-α production. Description: TNF-α production by LPS-stimulated rats (ELISA). It counts as in vivo, Male Lewis rats. The following applies: rat, −1 hr before LPS; for inhibition at 30 mg/kg / inhibition at 10 mg/kg: read-out: LPS Induced TNF alpha (−1 hr) In Vivo (+) = >15% Inhibition (−) = ≦15% Inhibition; for ED50: oral dosing, read-out: LPS Induced TNF alpha (−1 hr) In Vivo (+) = ED50 ≦ 10 (−) = ED50 > 10. The method, then:
TNF-α Production by LPS-Stimulated Mice
Male Lewis rats (180-200 g) were injected intraperitoneally with lipopolysaccharide (LPS) (50 μg/kg of E. coli strain 0111:B4, Sigma) suspended in sterile saline. Ninety minutes later, mice were sedated by CO2:O2 inhalation and a blood sample was obtained. Serum was separated and analyzed for TNF-α concentrations by commercial ELISA assay per the manufacturer's instructions (R&D Bioscience). Test compounds were administered orally at various times before LPS injection. The compounds were dosed either as suspensions or as solutions in various vehicles or solubilizing agents.
Compounds were dosed 0.5 to 3 hours before LPS stimulation. Rats were anaesthetized with Isofluor and injected i.v. with 0.3 mg/kg of LPS* in a volume of 0.3 ml sterile saline. Ninety minutes after the LPS injection, blood samples were collected into heparin tubes for preparation of plasma samples. Repression of TNFα production is assessed by commercial ELISA and reported below in Table 2.
For orientation: An ELISA detects its analyte on a solid surface through an enzyme-linked reagent.

T1 sequence (Q16539 whole entry): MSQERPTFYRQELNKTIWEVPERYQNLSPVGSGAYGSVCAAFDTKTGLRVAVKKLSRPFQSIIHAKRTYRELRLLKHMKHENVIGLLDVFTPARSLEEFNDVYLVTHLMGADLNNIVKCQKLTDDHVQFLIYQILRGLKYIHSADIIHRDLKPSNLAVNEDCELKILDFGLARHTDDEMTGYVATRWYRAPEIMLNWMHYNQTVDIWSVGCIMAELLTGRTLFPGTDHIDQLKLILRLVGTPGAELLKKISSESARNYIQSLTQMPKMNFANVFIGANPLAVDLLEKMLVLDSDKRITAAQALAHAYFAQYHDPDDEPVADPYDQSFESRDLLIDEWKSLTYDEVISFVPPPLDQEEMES

The term pIC50 denotes −log10 of the IC50, conventionally taken in molar units. Lower therefore signals a large IC50. The inhibition is the share of the control response that was lost under treatment. As for `Cc1onc(-c2ccccc2)c1-c1ccn(C(=O)NC(C)C)n1` [Example 1, 3-(5-Methyl-3-phenyl-isoxazol-4-yl)pyrazole-1-carboxylic acid isopropylamide], the negative-log IC50 (pIC50) in assay [1] (p38α biochemical assay) is at least 6.00. In the assay on TNF-α production, the inhibition at 30 mg/kg was above 15%. On the same counts, the results for `Cc1onc(-c2ccc(F)cc2F)c1-c1ccn(C(=O)NC(C)C)n1` [Example 17, 3-|3-(2,4-Difluoro-phenyl)-5-methyl-isoxazol-4-yl|-pyrazole-1-carboxylic acid isopropylamide] are at least 6.00 and above 15%. For the compound `Cc1onc(-c2ccc(F)cc2)c1-c1ccn(C(=O)NC(C)C)n1` [Example 18, 3-|3-(4-Fluoro-phenyl)-5-methyl-isoxazol-4-yl|-pyrazole-1-carboxylic acid isopropylamide], in assay [1] (p38α biochemical assay), the pIC50 was at least 6.00. The inhibition at 30 mg/kg with TNF-α production is above 15%.

Usually ED50 stands for the dose that gives a 50% effect, or the effect in half of the subjects. Consider `CC(C)NC(=O)n1ccc(-c2c(-c3ccc(F)cc3)noc2CN2CCOCC2)n1` [Example 26, 3-|3-(4-Fluoro-phenyl)-5-morpholin-4-ylmethyl-isoxazol-4-yl|-pyrazole-1-carboxylic acid isopropylamide], for which, in assay [1] (p38α biochemical assay), the pIC50 was at least 6.00. In the assay with TNF-α production, the inhibition at 10 mg/kg was above 15% and the ED50 is at most 10 mg/kg.

The compound `Cc1onc(-c2ccc(F)cc2)c1-c1nc(C(=O)NC(C)C)cs1` [Example 27, 2-|3-(4-Fluoro-phenyl)-5-methyl-isoxazol-4-yl|-thiazole-4-carboxylic acid isopropylamide] gave a pIC50 in assay [1] (p38α biochemical assay) of at least 6.00. In the assay on TNF-α production, the inhibition at 10 mg/kg was above 15% and the ED50 is above 10 mg/kg. Take `CC(C)NC(=O)c1csc(-c2c(-c3ccc(F)cc3)noc2C2CCNCC2)n1` [Example 35, 2-|3-(4-Fluoro-phenyl)-5-piperidin-4-yl-isoxazol-4-yl|-thiazole-4-carboxylic acid isopropylamide]: the negative logarithm of the IC50 (pIC50) in assay [1] (p38α biochemical assay) was at least 6.00. Further, the inhibition at 10 mg/kg with TNF-α production is at most 15%.

With `Cc1nc(-c2ccc(F)cc2)c(-c2nc(C(=O)NC(C)C)cs2)o1` [Example 38], in assay [1] (p38α biochemical assay), the pIC50 was at least 6.00. Moreover, in the assay with TNF-α production, the inhibition at 10 mg/kg is above 15% and the median effective dose (ED50) is at most 10 mg/kg. `CC(C)NC(=O)c1csc(-c2oc(CN3CCOCC3)nc2-c2ccc(F)cc2)n1` [Example 41, 2-|4-(4-Fluoro-phenyl)-2-morpholin-4-ylmethyl-oxazol-5-yl|-thiazole-4-carboxylic acid isopropylamide] had a pIC50 in assay [1] (p38α biochemical assay) of at least 6.00. For the same compound, the inhibition at 10 mg/kg in the assay on TNF-α production is above 15%. The corresponding values for `CC(C)NC(=O)c1csc(-c2oc(CN3CCNCC3)nc2-c2ccc(F)cc2)n1` [Example 44, 2-|4-(4-Fluoro-phenyl)-2-piperazin-1-ylmethyl-oxazol-5-yl|-thiazole-4-carboxylic acid isopropylamide] are at least 6.00 and at most 15%.

Take `Cc1nc(-c2ccc(F)cc2)c(-c2nc(C(=O)NC(C)C)cs2)s1` [Example 46, 4′-(4-Fluoro-phenyl)-2′-methyl-|2,5′|bithiazolyl-4-carboxylic acid isopropylamide]: the negative-log IC50 (pIC50) in assay [1] (p38α biochemical assay) was at least 6.00. Moreover, the inhibition at 30 mg/kg in the assay with TNF-α production is above 15%. In turn, `CC(C)NC(=O)c1csc(-c2c(-c3ccc(F)cc3)n[nH]c2C2CCN(C(=O)CO)CC2)n1` [Example 62, 2-{3-(4-Fluoro-phenyl)-5-|1-(2-hydroxy-acetyl)-piperidin-4-yl|-1H-pyrazol-4-yl}thiazole-4-carboxylic acid isopropylamide] gave a pIC50 in assay [1] (p38α biochemical assay) of at least 6.00. The inhibition at 10 mg/kg in the assay with TNF-α production was above 15%. The corresponding values for `CCNC(=O)c1csc(-c2c(-c3ccc(F)cc3)n[nH]c2C2CCN(C(=O)CO)CC2)n1` [Example 64, 2-{3-(4-Fluoro-phenyl)-5-|1-(2-hydroxy-acetyl)-piperidin-4-yl|-1H-pyrazol-4-yl}-thiazole-4-carboxylic acid ethylamide] are at least 6.00 and at most 15%. In assay [1] (p38α biochemical assay), `C#CCNC(=O)c1csc(-c2c(-c3ccc(F)cc3)n[nH]c2C2CCN(C(=O)CO)CC2)n1` [Example 66, 2-{3-(4-Fluoro-phenyl)-5-|1-(2-hydroxy-acetyl)-piperidin-4-yl|-1H-pyrazol-4-yl}-thiazole-4-carboxylic acid prop-2-ynylamide] had a pIC50 of at least 6.00. In addition, in the assay on TNF-α production, the inhibition at 10 mg/kg was at most 15%. With `O=C(NCc1cccnc1)c1csc(-c2c(-c3ccc(F)cc3)n[nH]c2C2CCN(C(=O)CO)CC2)n1` [Example 68, 2-{3-(4-Fluoro-phenyl)-5-|1-(2-hydroxy-acetyl)-piperidin-4-yl|-1H-pyrazol-4-yl}thiazole-4-carboxylic acid (pyridin-3-ylmethyl)-amide], the negative-log IC50 (pIC50) in assay [1] (p38α biochemical assay) is at least 6.00. For the same compound, the inhibition at 10 mg/kg with TNF-α production is above 15%. On the same counts, the results for `CONC(=O)c1csc(-c2c(-c3ccc(F)cc3)n[nH]c2C2CCNCC2)n1` [Example 71, 2-|3-(4-Fluoro-phenyl)-5-piperidin-4-yl-1H-pyrazol-4-yl|-thiazole-4-carboxylic acid methoxy-amide] are at least 6.00 and at most 15%. The corresponding values for `Cc1[nH]nc(-c2ccc(F)cc2)c1-c1nc(C(=O)NCC2CC2)cs1` [Example 73, 2-|3-(4-Fluoro-phenyl)-5-methyl-1H-pyrazol-4-yl|-thiazole-4-carboxylic acid cyclopropylmethyl-amide] are at least 6.00 and at most 15%.

With `C#CCNC(=O)c1csc(-c2c(-c3ccc(F)cc3)n[nH]c2C)n1` [Example 78, 2-|3-(4-Fluoro-phenyl)-5-methyl-1H-pyrazol-4-yl|-thiazole-4-carboxylic acid prop-2-ynylamide], in assay [1] (p38α biochemical assay), the negative logarithm of the IC50 (pIC50) is at least 6.00. The inhibition at 10 mg/kg in the assay on TNF-α production was at most 15%. In turn, `O=C(NCC(F)(F)F)c1csc(-c2c(-c3ccc(F)cc3)ncn2C2CCNCC2)n1` [Example 2185, 2-|5-(4-Fluoro-phenyl)-3-piperidin-4-yl-3H-imidazol-4-yl|-thiazole-4-carboxylic acid (2,2,2-trifluoro-ethyl)-amide] had a negative logarithm of the IC50 (pIC50) in assay [1] (p38α kinase) of at least 6.00.

`CC(C)NC(=O)c1ccn(-c2c(-c3ccc(F)cc3)noc2C2CCNCC2)n1` [Example 2188, 1-|3-(4-Fluoro-phenyl)-5-piperidin-4-yl-isoxazol-4-yl|-1H-pyrazole-3-carboxylic acid isopropylamide] had a pIC50 in assay [1] (p38α kinase) below 6.00. `CC(C)NC(=O)c1csc(-c2c(-c3ccc(F)cc3)ncn2C2CC(C)(C)NC(C)(C)C2)n1` [Example 2189, 2-|5-(4-Fluoro-phenyl)-3-(2,2,6,6-tetramethyl-piperidin-4-yl)-3H-imidazol-4-yl|-thiazole-4-carboxylic acid isopropylamide]: in assay [1] (p38α kinase), the pIC50 is below 6.00. As to `O=C(NC1CCCC1)c1csc(-c2c(-c3ccc(F)cc3)ncn2C2CCNCC2)n1` [Example 2190, 2-|5-(4-Fluoro-phenyl)-3-piperidin-4-yl-3H-imidazol-4-yl|-thiazole-4-carboxylic acid cyclopentylamide], the pIC50 in assay [1] (p38α kinase) was at least 6.00. The same measure, in the same setting: under `O=C(NC1CCCCC1)c1csc(-c2c(-c3ccc(F)cc3)ncn2C2CCNCC2)n1` [Example 2191, 2-|5-(4-Fluoro-phenyl)-3-piperidin-4-yl-3H-imidazol-4-yl|-thiazole-4-carboxylic acid cyclohexylamide] stands at least 6.00; under `CCN(C(=O)NCCCN(C)C)C(=O)c1csc(-c2c(-c3ccc(F)cc3)ncn2C2CCNCC2)n1` [Example 2192, 3-(3-Dimethylamino-propyl)-1-ethyl-1-{2-|5-(4-fluoro-phenyl)-3-piperidin-4-yl-3H-imidazol-4-yl|-thiazole-4-carbonyl}-urea], below 6.00. `CC(C)NC(=O)c1csc(-c2c(-c3ccc(F)cc3)ncn2C2CCN(CCO)CC2)n1` [Example 2193, 2-{5-(4-Fluoro-phenyl)-3-|1-(2-hydroxy-ethyl)-piperidin-4-yl|-3H-imidazol-4-yl}-thiazole-4-carboxylic acid isopropylamide]: in assay [1] (p38α kinase), the pIC50 was below 6.00. In assay [1] (p38α kinase), `CC(=O)N1CCC(n2cnc(-c3ccc(F)cc3)c2-c2nc(C(=O)NC(C)C)cs2)CC1` [Example 2194, 2-|3-(1-Acetyl-piperidin-4-yl)-5-(4-fluoro-phenyl)-3H-imidazol-4-yl|-thiazole-4-carboxylic acid isopropylamide] gave a pIC50 of at least 6.00.

With `Cc1[nH]nc(-c2ccc(F)cc2)c1-c1nc(C(=O)NC(C)C)ns1` [Example 2195, 5-|3-(4-Fluoro-phenyl)-5-methyl-1H-pyrazol-4-yl|-|1,2,4|thiadiazole-3-carboxylic acid isopropylamide], the negative-log IC50 (pIC50) in assay [1] (p38α kinase) is below 6.00.

In assay [1] (p38α kinase), `Cc1[nH]nc(-c2ccc(F)cc2)c1-c1nc(C(=O)NC(C)C)no1` [Example 2196, 5-|3-(4-Fluoro-phenyl)-5-methyl-1H-pyrazol-4-yl|-|1,2,4|oxadiazole-3-carboxylic acid isopropylamide] gave a negative-log IC50 (pIC50) below 6.00.

Source of the values: patent US20060252807A1, “Novel ortho-terphenyl inhibitors of p38 kinase and methods of treating inflammatory disorders” (Kalypsys, Inc., priority 2005, published 2006).
